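96-well plates; 48 h exposure; 5 concentrations. Endpoints by linear interpolation between flanking doses. Not reached: highest tested concentration assigned. Here, GI50 denotes the concentration required for 50% inhibition of growth.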 The source made the active and inactive calls. Cut-off read from the data, not from the text of the source: active = GI50 up to about 1.1 µM and inactive = higher.
Columns and labels:
Experiment in all cases: inhibition of tumour cell growth, NCI panel, 48 h
HL-60 = tested on: HL-60
NCI-H460 = tested on: NCI-H460
MOLT-4 = tested on: MOLT-4
Hs-578T = tested on: Hs-578T
K562 = tested on: K562
LOX IMVI = tested on: LOX IMVI
OVCAR-3 = tested on: OVCAR-3
A498 = tested on: A498
BT-549 = tested on: BT-549
UACC-257 = tested on: UACC-257
OVCAR-5 = tested on: OVCAR-5
NCI-H226 = tested on: NCI-H226
DU-145 = tested on: DU-145
SNB-19 = tested on: SNB-19
M14 = tested on: M14
U-251 = tested on: U-251
HT-29 = tested on: HT-29
SK-MEL-2 = tested on: SK-MEL-2
HOP-62 = tested on: HOP-62
SW-620 = tested on: SW-620

SMILES	GI50 (HL-60)	GI50 (NCI-H460)	GI50 (MOLT-4)	GI50 (Hs-578T)	GI50 (K562)	GI50 (LOX IMVI)	GI50 (OVCAR-3)	GI50 (A498)	GI50 (BT-549)	GI50 (UACC-257)	GI50 (OVCAR-5)	GI50 (NCI-H226)	GI50 (DU-145)	GI50 (SNB-19)	GI50 (M14)	GI50 (U-251)	GI50 (HT-29)	GI50 (SK-MEL-2)	GI50 (HOP-62)	GI50 (SW-620)
O=C(O)CNCP(=O)(O)O [GLYPHOSATE]	> 100 µM (inactive)	> 100 µM (inactive)	> 100 µM (inactive)	> 100 µM (inactive)	> 100 µM (inactive)	> 100 µM (inactive)	> 100 µM (inactive)	> 100 µM (inactive)	> 100 µM (inactive)	> 100 µM (inactive)	> 100 µM (inactive)	> 100 µM (inactive)	> 100 µM (inactive)	> 100 µM (inactive)	> 100 µM (inactive)	> 100 µM (inactive)	> 100 µM (inactive)	> 100 µM (inactive)	> 100 µM (inactive)	> 100 µM (inactive)
COC(=O)C1=NN2c3ccccc3CN([C@@H](C)c3ccccc3)C(=O)[C@H]2[C@@H]1C	0.769 µM (active)	38.1 µM (inactive)	17.3 µM (inactive)	67.1 µM (inactive)	7.13 µM (inactive)	35.2 µM (inactive)	27 µM (inactive)	> 100 µM (inactive)	24.7 µM (inactive)	26.9 µM (inactive)	37.6 µM (inactive)	25.9 µM (inactive)	47.5 µM (inactive)	74.6 µM (inactive)	35.2 µM (inactive)	42 µM (inactive)	31.8 µM (inactive)	35.9 µM (inactive)	52.1 µM (inactive)	43.1 µM (inactive)
ClCC[N+]12CC[N+](CCCl)(CC1)C2	> 100 µM (inactive)	> 87.7 µM (inactive)	> 100 µM (inactive)	> 100 µM (inactive)	> 100 µM (inactive)	> 100 µM (inactive)	> 100 µM (inactive)	> 100 µM (inactive)	> 100 µM (inactive)	> 100 µM (inactive)	> 100 µM (inactive)	> 100 µM (inactive)	> 100 µM (inactive)	> 100 µM (inactive)	> 100 µM (inactive)	> 100 µM (inactive)	> 100 µM (inactive)	> 100 µM (inactive)	> 100 µM (inactive)	> 100 µM (inactive)
O=C1/C(=C/c2ccccc2)CN(C(=O)OCc2ccccc2)C/C1=C\c1ccccc1	1.79 µM (inactive)	21.4 µM (inactive)	2.76 µM (inactive)	2.47 µM (inactive)	1.88 µM (inactive)	4.76 µM (inactive)	1.68 µM (inactive)	27.4 µM (inactive)	13.2 µM (inactive)	16 µM (inactive)	17.4 µM (inactive)	26.2 µM (inactive)	54.8 µM (inactive)	26.6 µM (inactive)	8.07 µM (inactive)	4.51 µM (inactive)	7.69 µM (inactive)	17.9 µM (inactive)	32.1 µM (inactive)	1.81 µM (inactive)
O=C(c1ccccc1)c1c(-c2ccccc2)n(-c2ccccc2)[nH]c(=O)c1=O	32.2 µM (inactive)	44.7 µM (inactive)	28.2 µM (inactive)	21.6 µM (inactive)	14.8 µM (inactive)	25.6 µM (inactive)	37.2 µM (inactive)	> 100 µM (inactive)	13.7 µM (inactive)	70.1 µM (inactive)	> 100 µM (inactive)	16.5 µM (inactive)	> 100 µM (inactive)	88.3 µM (inactive)	> 100 µM (inactive)	44.5 µM (inactive)	> 100 µM (inactive)	24 µM (inactive)	28.8 µM (inactive)	–
CC(C)C1OC(=O)C=C1Sc1ccccc1 (centres undefined)	> 100 µM (inactive)	> 100 µM (inactive)	> 100 µM (inactive)	> 100 µM (inactive)	> 100 µM (inactive)	> 100 µM (inactive)	> 100 µM (inactive)	> 100 µM (inactive)	> 100 µM (inactive)	> 100 µM (inactive)	> 100 µM (inactive)	> 100 µM (inactive)	> 100 µM (inactive)	> 100 µM (inactive)	> 100 µM (inactive)	> 100 µM (inactive)	> 100 µM (inactive)	> 100 µM (inactive)	> 100 µM (inactive)	> 100 µM (inactive)
Oc1c(O)c(Cc2ccccc2)c(Cc2ccccc2)c(Cc2ccccc2)c1Cc1ccccc1	> 10 µM (inactive)	> 10 µM (inactive)	> 10 µM (inactive)	> 10 µM (inactive)	> 10 µM (inactive)	> 10 µM (inactive)	> 10 µM (inactive)	> 10 µM (inactive)	> 10 µM (inactive)	> 10 µM (inactive)	> 10 µM (inactive)	> 10 µM (inactive)	> 10 µM (inactive)	> 10 µM (inactive)	> 10 µM (inactive)	> 10 µM (inactive)	> 10 µM (inactive)	> 10 µM (inactive)	> 10 µM (inactive)	> 10 µM (inactive)
NS(=O)(=O)c1cc(Br)c(/N=N\c2ccc(O)c3ncccc23)c(Br)c1	6.04 µM (inactive)	25.3 µM (inactive)	3.99 µM (inactive)	21.8 µM (inactive)	20 µM (inactive)	20.9 µM (inactive)	54.6 µM (inactive)	18.6 µM (inactive)	16.4 µM (inactive)	19.6 µM (inactive)	71.6 µM (inactive)	45 µM (inactive)	47 µM (inactive)	19.5 µM (inactive)	13.1 µM (inactive)	19.1 µM (inactive)	> 100 µM (inactive)	28 µM (inactive)	25.5 µM (inactive)	34.8 µM (inactive)
CN(C)CCCNc1c2ccccc2nc2cccc([N+](=O)[O-])c12	0.00362 µM (active)	< 0.001 µM (active)	0.01 µM (active)	0.00288 µM (active)	< 0.001 µM (active)	0.00142 µM (active)	0.0143 µM (active)	< 0.001 µM (active)	0.00252 µM (active)	0.00275 µM (active)	0.00217 µM (active)	0.0048 µM (active)	0.00257 µM (active)	0.00173 µM (active)	< 0.001 µM (active)	0.0103 µM (active)	< 0.001 µM (active)	< 0.001 µM (active)	0.0011 µM (active)	< 0.001 µM (active)
COc1cc([C@@H]2OC[C@@H]3C(c4cc(OC)c5c(c4)OCO5)OC[C@@H]32)cc(OC)c1OC (some centres undefined)	> 10 µM (inactive)	> 100 µM (inactive)	51.3 µM (inactive)	> 100 µM (inactive)	> 100 µM (inactive)	> 100 µM (inactive)	> 100 µM (inactive)	> 100 µM (inactive)	57.9 µM (inactive)	> 100 µM (inactive)	> 100 µM (inactive)	> 100 µM (inactive)	> 100 µM (inactive)	> 100 µM (inactive)	> 100 µM (inactive)	> 100 µM (inactive)	42.2 µM (inactive)	> 100 µM (inactive)	> 100 µM (inactive)	> 100 µM (inactive)

From ChEMBL document CHEMBL1201862, “PubChem BioAssay data set” (2004)
